Measurements taken from patent US11370761B2, “Voltage-dependent T-type calcium channel inhibitor” (Nippon Chemiphar Co., Ltd., priority 2017, dated 2022).

target: T1, human Cav3.2 channel (Homo sapiens, UniProt O95180); assay: Intracellular calcium concentration measurement in human Cav3.2 channel expressing stable cell line (Pharmacological Test 1); assay type: cell-based; conditions: HEK293 cells stably expressing human Cav3.2, Fluo-4 AM fluorescence, KCl stimulation; read-out: Cav3.2 channel inhibitory action
T1 construct: expressed in transfected cells
T1 sequence (O95180 whole entry): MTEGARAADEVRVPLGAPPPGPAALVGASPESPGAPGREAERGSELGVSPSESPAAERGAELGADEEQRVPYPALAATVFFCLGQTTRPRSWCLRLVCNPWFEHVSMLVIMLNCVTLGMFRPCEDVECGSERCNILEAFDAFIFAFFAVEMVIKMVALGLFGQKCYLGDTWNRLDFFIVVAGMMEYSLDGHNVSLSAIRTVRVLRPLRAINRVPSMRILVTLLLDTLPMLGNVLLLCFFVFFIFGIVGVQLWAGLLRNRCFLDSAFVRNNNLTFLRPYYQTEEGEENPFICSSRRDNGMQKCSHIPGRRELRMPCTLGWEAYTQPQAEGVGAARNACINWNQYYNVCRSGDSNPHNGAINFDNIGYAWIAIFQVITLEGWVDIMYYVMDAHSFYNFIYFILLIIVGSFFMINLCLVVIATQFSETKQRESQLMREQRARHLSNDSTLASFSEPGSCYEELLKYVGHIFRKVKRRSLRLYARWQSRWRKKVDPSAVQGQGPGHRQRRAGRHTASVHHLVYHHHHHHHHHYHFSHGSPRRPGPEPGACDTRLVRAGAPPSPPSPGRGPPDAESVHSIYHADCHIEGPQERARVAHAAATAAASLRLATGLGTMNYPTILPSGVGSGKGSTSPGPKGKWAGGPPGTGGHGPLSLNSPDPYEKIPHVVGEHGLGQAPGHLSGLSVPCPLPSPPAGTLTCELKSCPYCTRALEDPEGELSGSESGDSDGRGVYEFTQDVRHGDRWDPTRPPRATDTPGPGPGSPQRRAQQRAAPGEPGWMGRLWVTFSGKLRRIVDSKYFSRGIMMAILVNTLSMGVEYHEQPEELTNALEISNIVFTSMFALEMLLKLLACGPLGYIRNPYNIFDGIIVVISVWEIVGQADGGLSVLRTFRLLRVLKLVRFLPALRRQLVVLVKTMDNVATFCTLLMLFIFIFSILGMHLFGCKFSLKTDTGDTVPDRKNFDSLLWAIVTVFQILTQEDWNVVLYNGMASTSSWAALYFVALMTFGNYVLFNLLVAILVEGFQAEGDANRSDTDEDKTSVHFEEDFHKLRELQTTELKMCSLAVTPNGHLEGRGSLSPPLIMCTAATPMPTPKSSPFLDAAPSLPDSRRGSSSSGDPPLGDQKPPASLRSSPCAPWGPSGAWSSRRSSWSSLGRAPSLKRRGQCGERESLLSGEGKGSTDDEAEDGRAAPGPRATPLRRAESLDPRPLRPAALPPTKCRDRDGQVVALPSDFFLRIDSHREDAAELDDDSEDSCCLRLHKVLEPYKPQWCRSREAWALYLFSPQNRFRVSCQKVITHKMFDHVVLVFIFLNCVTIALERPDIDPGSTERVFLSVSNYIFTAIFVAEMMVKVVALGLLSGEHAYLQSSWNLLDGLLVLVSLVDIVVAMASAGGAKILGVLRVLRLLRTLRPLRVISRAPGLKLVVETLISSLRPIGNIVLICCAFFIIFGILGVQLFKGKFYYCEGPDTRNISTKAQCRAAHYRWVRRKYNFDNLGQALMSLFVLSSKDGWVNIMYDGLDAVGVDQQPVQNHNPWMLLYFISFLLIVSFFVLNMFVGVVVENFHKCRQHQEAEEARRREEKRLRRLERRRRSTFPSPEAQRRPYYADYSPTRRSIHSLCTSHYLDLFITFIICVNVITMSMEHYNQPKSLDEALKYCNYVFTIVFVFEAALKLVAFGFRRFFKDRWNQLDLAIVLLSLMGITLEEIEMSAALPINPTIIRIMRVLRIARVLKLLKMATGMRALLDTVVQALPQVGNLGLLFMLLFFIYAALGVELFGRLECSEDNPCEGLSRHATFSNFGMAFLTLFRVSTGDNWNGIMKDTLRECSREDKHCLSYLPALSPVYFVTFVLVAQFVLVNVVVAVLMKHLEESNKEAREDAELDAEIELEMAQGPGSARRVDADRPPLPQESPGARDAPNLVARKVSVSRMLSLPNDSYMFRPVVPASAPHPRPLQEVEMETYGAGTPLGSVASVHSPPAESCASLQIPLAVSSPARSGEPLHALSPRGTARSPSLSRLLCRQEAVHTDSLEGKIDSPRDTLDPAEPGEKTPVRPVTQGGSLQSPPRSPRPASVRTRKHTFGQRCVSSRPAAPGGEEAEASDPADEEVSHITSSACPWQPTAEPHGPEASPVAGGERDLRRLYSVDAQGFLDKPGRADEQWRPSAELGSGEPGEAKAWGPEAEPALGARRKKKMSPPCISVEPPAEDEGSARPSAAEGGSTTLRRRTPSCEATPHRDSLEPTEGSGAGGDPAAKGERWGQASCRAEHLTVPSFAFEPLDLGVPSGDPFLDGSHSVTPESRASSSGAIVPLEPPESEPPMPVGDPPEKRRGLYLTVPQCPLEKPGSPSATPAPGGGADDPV
From the text: (1) Construction of Human Cav3.2 Channel Expressing Stable Cell Line
A sequence in which a HindIII site and a kozak sequence (GCCACC) was provided on a 5′ side of a human Cav3.2 channel open reading frame (ORF) gene and a KpnI site was provided on a 3′ side thereof was incorporated into pcDNA3.1(+) (Thermo Fisher Scientific #V790-20), and the resultant was transfected into a HEK293 cell (ATCC No. CRL-1573) according to a protocol of FuGENE (registered trademark) HD Transfection Reagent (Promega #E2311).
(2) Method of Measuring Intracellular Calcium Concentration
The human Cav3.2 channel expressing stable cell line prepared by the test method (1) was seeded in a 96-well plate using a Dulbecco's modified Eagle's medium (DMEM medium) containing 10% fetal bovine serum (FBS), followed by culturing 37° C. for 48 hours under a 5% CO2 condition. Thereafter, the medium was removed, and each well washed with an A buffer was treated with 80 μL of a fluorescent dye solution containing a liquid mixture of 22 μg of a calcium fluorescent indicator Fluo-4 AM (Dojindo Molecular Technologies, Inc., #F311), 20 μL of dimethyl sulfoxide (DMSO), 1 μL of 10% Pluronic F-127 (Thermo Fisher Scientific #P6866), and 4 mL of the A buffer. After being left to stand for 45 minutes at room temperature under a light shielding condition, the cells were washed with a B buffer. In DMSO having the same final concentration as the test compound as a negative control, and the test compound dissolved in DMSO to have a final concentration of 0.1%, each test compound concentration solution containing the B buffer was added to each well. The cells were left to stand for additional 15 minutes at room temperature under a light shielding condition, and were measured using microplate reader EnVision (PerkinElmer Co., Ltd.) by the following method. First, after measuring background fluorescence in each well, an ionophore was added, and baseline fluorescence was measured. Thereafter, B buffer containing added KCl at a concentration of 83.8 mM was added to each well, and an increase in fluorescence due to calcium influx caused by the stimulation was measured for 10 seconds. Inhibition percentage was calculated from the maximum fluorescence increase value from the baseline, and an IC50 value was calculated by plotting a logarithmic value of the test compound concentration and inhibition activity. The measurement was performed by observing fluorescence of 510 nm emitted when the cells were irradiated with excitation light of 485 nm.
A buffer: 140 mM NaCl, 5 mM KCl, 1 mM MgCl2, 0.5 mM CaCl2, 10 mM Glucose, 10 mM HEPES, pH 7.3
B buffer: potassium equilibrium potential: −92 mV

IC50 [µM] | SMILES
0.1 to 1 | CCCc1ccc(NC(=O)C(C)NC(=O)C2CC2c2nc3ccccc3[nH]2)cc1 (single isomer, unassigned) [Example 1B, Trans-2-(1H-benzo[d]imidazol-2-yl)-N-(1-oxo-1-((4-propylphenyl)amino)propan-2-yl) cyclopropane-1-carboxamide]
0.1 to 1 | CCCc1ccc(NC(=O)C(C)NC(=O)C2CC2c2nc3ccccc3[nH]2)cc1 (single isomer, unassigned) [Example 2A, Trans-2-(1H-benzo[d]imidazol-2-yl)-N-(1-oxo-1-((4-propylphenyl)amino)propan-2-yl) cyclopropane-1-carboxamide]
> 10 | CCCc1ccc(NC(=O)C(C)NC(=O)C2CC2c2nc3ccccc3[nH]2)cc1 (single isomer, unassigned) [Example 2B, Trans-2-(1H-benzo[d]imidazol-2-yl)-N-(1-oxo-1-((4-propylphenyl)amino)propan-2-yl) cyclopropane-1-carboxamide]
0.1 to 1 | CC(NC(=O)C1CC1c1nc2ccccc2[nH]1)C(=O)Nc1ccc(C(F)(F)F)nc1 (single isomer, unassigned) [Example 5B, Trans-2-(1H-benzo[d]imidazol-2-yl)-N-(1-oxo-1-((6-(trifluoromethyl)pyridin-3-yl)amino)propan-2-yl) cyclopropane-1-carboxamide]
1 to 10 | CC(NC(=O)C1CC1c1nc2ccccc2[nH]1)C(=O)Nc1ccc(C#N)cc1 (single isomer, unassigned) [Example 6A, Trans-2-(1H-benzo[d]imidazol-2-yl)-N-(1-((4-cyanophenyl)amino)-1-oxopropan-2-yl) cyclopropane-1-carboxamide]
1 to 10 | CC(NC(=O)C1CC1c1nc2ccccc2[nH]1)C(=O)Nc1ccc(C#N)cc1 (single isomer, unassigned) [Example 6B, Trans-2-(1H-benzo[d]imidazol-2-yl)-N-(1-((4-cyanophenyl)amino)-1-oxopropan-2-yl) cyclopropane-1-carboxamide]
0.1 to 1 | CC(NC(=O)C1CC1c1nc2ccccc2[nH]1)C(=O)Nc1ccc(C(C)(C)C)cc1 (single isomer, unassigned) [Example 7B, Trans-2-(1H-benzo[d]imidazol-2-yl)-N-(1-((4-(tert-butyl)phenyl)amino)-1-oxopropan-2-yl) cyclopropane-1-carboxamide]
0.1 to 1 | CC(NC(=O)C1CC1c1nc2ccccc2[nH]1)C(=O)N(C)c1ccc(C(F)(F)F)cc1 (single isomer, unassigned) [Example 8A, Trans-2-(1H-benzo[d]imidazol-2-yl)-N-(1-(methyl(4-(trifluoromethyl)phenyl)amino)-1-oxopropan-2-yl) cyclopropane-1-carboxamide]
1 to 10 | CC(NC(=O)C1CC1c1nc2ccccc2[nH]1)C(=O)N(C)c1ccc(C(F)(F)F)cc1 (single isomer, unassigned) [Example 8B, Trans-2-(1H-benzo[d]imidazol-2-yl)-N-(1-(methyl(4-(trifluoromethyl)phenyl)amino)-1-oxopropan-2-yl) cyclopropane-1-carboxamide]
0.1 to 1 | CC(NC(=O)C1CC1c1nc2ccccc2[nH]1)C(=O)Nc1ccc(Cl)cc1 (single isomer, unassigned) [Example 16A, Trans-2-(1H-benzo[d]imidazol-2-yl)-N-(1-((4-chlorophenyl)amino)-1-oxopropan-2-yl) cyclopropane-1-carboxamide]
1 to 10 | CC(NC(=O)C1CC1c1nc2ccccc2[nH]1)C(=O)Nc1ccc(Cl)cc1 (single isomer, unassigned) [Example 16B, Trans-2-(1H-benzo[d]imidazol-2-yl)-N-(1-((4-chlorophenyl)amino)-1-oxopropan-2-yl) cyclopropane-1-carboxamide]
> 10 | CC(NC(=O)C1CC1c1nc2ccccc2[nH]1)C(=O)Nc1cnc(Br)cn1 (single isomer, unassigned) [Example 18B, Trans-2-(1H-benzo[d]imidazol-2-yl)-N-(1-((5-bromopyrazin-2-yl)amino)-1-oxopropan-2-yl) cyclopropane-1-carboxamide]
1 to 10 | O=C(Nc1ccc(C(F)(F)F)cc1)C1CCCN1C(=O)C1CC1c1nc2ccccc2[nH]1 (single isomer, unassigned) [Example 19A, Trans-1-(2-(1H-benzo[d]imidazol-2-yl)cyclopropane-1-carbonyl)-N-(4-(trifluoromethyl)phenyl)pyrrolidine-2-carboxamide]
1 to 10 | O=C(Nc1ccc(C(F)(F)F)cc1)C1CCCN1C(=O)C1CC1c1nc2ccccc2[nH]1 (single isomer, unassigned) [Example 19B, Trans-1-(2-(1H-benzo[d]imidazol-2-yl)cyclopropane-1-carbonyl)-N-(4-(trifluoromethyl)phenyl)pyrrolidine-2-carboxamide]
1 to 10 | O=C(NC1CCN(c2ccc(C(F)(F)F)cc2)C1=O)[C@H]1C[C@@H]1c1nc2ccccc2[nH]1 (single isomer, unassigned) [Example 23A]
0.1 to 1 | O=C(NC1CCN(c2ccc(C(F)(F)F)cc2)C1=O)[C@H]1C[C@@H]1c1nc2ccccc2[nH]1 (single isomer, unassigned) [Example 23B]
0.1 to 1 | COCC(NC(=O)[C@H]1C[C@@H]1c1nc2ccccc2[nH]1)C(=O)Nc1ccc(F)c(C(F)(F)F)c1 (single isomer, unassigned) [Example 32A]
0.1 to 1 | COCC(NC(=O)[C@H]1C[C@@H]1c1nc2ccccc2[nH]1)C(=O)Nc1ccc(F)c(C(F)(F)F)c1 (single isomer, unassigned) [Example 32B]
1 to 10 | O=C(NC1CC(=O)N(c2ccc(C(F)(F)F)nc2)C1)[C@H]1C[C@@H]1c1nc2ccccc2[nH]1 (single isomer, unassigned) [Example 33A]
1 to 10 | O=C(NC1CC(=O)N(c2ccc(C(F)(F)F)nc2)C1)[C@H]1C[C@@H]1c1nc2ccccc2[nH]1 (single isomer, unassigned) [Example 33B]
≤ 0.1 | CC(NC(=O)C1CC1c1nc2ccccc2[nH]1)C(=O)Nc1cccc(C(F)(F)F)c1 (single isomer, unassigned) [Example 38A, Trans-2-(1H-benzo[d]imidazol-2-yl)-N-(1-oxo-1-((3-(trifluoromethyl)phenyl)amino)propan-2-yl) cyclopropane-1-carboxamide]
≤ 0.1 | CC(NC(=O)C1CC1c1nc2ccccc2[nH]1)C(=O)Nc1cccc(C(F)(F)F)c1 (single isomer, unassigned) [Example 38B, Trans-2-(1H-benzo[d]imidazol-2-yl)-N-(1-oxo-1-((3-(trifluoromethyl)phenyl)amino)propan-2-yl) cyclopropane-1-carboxamide]
1 to 10 | CC(C)Oc1ccc(NC(=O)C(C)NC(=O)C2CC2c2nc3ccccc3[nH]2)cc1 (stereo not drawn) [Example 3, Trans-2-(1H-benzo[d]imidazol-2-yl)-N-(1-((4-isopropoxyphenyl)amino)-1-oxopropan-2-yl) cyclopropane-1-carboxamide]
> 10 | CC(NC(=O)C1CC1c1nc2ccccc2[nH]1)C(=O)NCc1ccc(S(C)(=O)=O)cc1 (stereo not drawn) [Example 9, Trans-2-(1H-benzo[d]imidazol-2-yl)-N-(1-((4-(methylsulfonyl)benzyl)amino)-1-oxopropan-2-yl) cyclopropane-1-carboxamide]
